Like-named read-outs stand apart in the source and are kept apart here.
Molecular target: T1, GST-Bcl-B (Homo sapiens, UniProt Q9HD36)
T1 sequence (Q9HD36 1-182 limits assumed): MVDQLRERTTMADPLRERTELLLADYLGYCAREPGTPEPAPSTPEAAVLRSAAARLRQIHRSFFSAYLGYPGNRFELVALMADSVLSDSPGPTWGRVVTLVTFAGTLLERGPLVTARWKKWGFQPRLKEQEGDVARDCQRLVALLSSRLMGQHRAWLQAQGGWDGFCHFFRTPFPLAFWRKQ
Experiment: Bcl-B/FITC-TR3-r8 fluorescence polarization competition (displacement) assay, HTS and dose-response

[1] = Table 8, NCI Structural library, Binding Assay, FP, Concentration 0.02 uM
[2] = read-out: Result Value (Result Type % Inhibition), BCL-b/TR3, Table 8, NCI Structural library, Binding Assay, FP, Concentration 0.02 uM
[3] = read-out: Result Value (Result Type % Inhibition), BCL-b/TR3
[4] = Table 7, NCI Mechanistic library, Binding Assay, FP, Concentration 0.02 uM
[5] = read-out: Result Value (Result Type % Inhibition), BCL-b/TR3, Table 7, NCI Mechanistic library, Binding Assay, FP, Concentration 0.02 uM

SMILES | F Ratio [1] | Is Hit [1] | inhibition at 0.02 µM [2] | inhibition at 0.02 µM [3] | F Ratio [4] | Is Hit [4] | inhibition at 0.02 µM [5]
CN(C)C1C(O)=C(C(=O)NCN2CCCC2)C(=O)C2(O)C(O)=C3C(=O)c4c(O)cccc4C(C)(O)C3CC12 (stereo not shown) [Compound 50352] | 0.2153 | Yes | 122% |  |  |  | 
O=C1c2cc([N+](=O)[O-])ccc2-c2ccc3c4ccc5c6c(ccc(c7ccc1c2c73)c64)C(=O)c1cc([N+](=O)[O-])ccc1-5 [Compound 51535] | 0.4823 | Yes |  | 146% |  |  | 
Cc1cc2c(C(C)C)c(O)c(O)c(C=O)c2c(O)c1-c1c(C)cc2c(C(C)C)c(O)c(O)c(C=O)c2c1O [Compound 56817] |  |  |  |  | 0.1472 | Yes | 57.3%
[O-][n+]1c2c([n+]([O-])c3ccccc31)-c1cccc3cccc-2c13 [Compound 60309] |  |  |  | 72.3% | 1.4371 | Yes | 
Nc1ccc(/N=N/c2ccc(-c3ccc(O)cc3)cc2)c2ccc(S(=O)(=O)O)cc12 [Compound 65528] | 0.1609 | Yes |  | 71.6% |  |  | 
CN(C)C1C(O)=C(C(N)=O)C(=O)C2(O)C(O)=C3C(=O)c4c(O)cccc4C(C)(O)C3CC12.CS(=O)(=O)O (stereo not shown) [Compound 69343] | 0.3746 | Yes |  | 93.4% |  |  | 
Cc1cc2c(c3oc(C4OC4C4OC4C)cc(=O)c13)C(=O)c1c(O)c(C3CC(C)(N(C)C)C(O)C(C)O3)cc(C3CC(N(C)C)C(O)C(C)O3)c1C2=O (stereo not shown) [Compound 70929] |  |  |  |  | 0.1099 | Yes | 105%
O=[N+]([O-])c1ccc2c(/N=N/c3c(O)ccc4ccccc34)c(O)cc(S(=O)(=O)O)c2c1 [Compound 73413] |  |  |  | 125% | 0.05947 | Yes | 
O=[N+]([O-])c1cccc2c(/N=N/c3ccc4ccccc4c3O)c(O)cc(S(=O)(=O)O)c12 [Compound 85561] |  |  |  | 141% | 0.06489 | Yes | 
C[n+]1c(/C=C/c2ccc(O)c3ncccc23)[se]c2ccccc21 [Compound 86374] | 0.09444 | Yes | 61.4% |  |  |  | 
O=S(=O)(O)c1ccc2cc(/N=N/c3cc(S(=O)(=O)O)c4cccnc4c3O)ccc2c1 [Compound 87677] | 0.3822 | Yes |  | 66.1% |  |  | 
C[C@]12CC[C@H]3[C@@H](CCC4=CC(=O)CC[C@@]43C)[C@@H]1CC[C@@H]2C(=O)COS(=O)(=O)c1ccc(Br)cc1 [Compound 88915] | 0.2647 | Yes |  | 61.4% |  |  | 
Cc1cc(C(=C2C=CC(=N)C=C2)c2ccc(N)cc2)ccc1N [Compound 93739] |  |  |  | 78.6% |  |  | 
Oc1ccc(Cc2nccc3cc(O)c(O)cc23)cc1O [Compound 99799] | 0.09369 | Yes |  | 77.4% |  |  | 
O=C1OC(c2ccccc2)=N/C1=C\c1ccc(N(CCCl)CCCl)cc1 [Compound 104117] |  |  |  | 62.8% | 1.2733 | Yes | 
COC(=O)c1ccc(O)c2nc3c(C=O)c(O)cc(O)c3nc12 [Compound 106995] |  |  |  | 98.9% | 0.08027 | Yes | 
COc1cc(-c2[o+]c3cc(O)cc(O)c3cc2O)cc(O)c1O.O=C(O)c1ccccc1 [Compound 114885] | 0.08249 | Yes | 108% |  |  |  | 
Nc1c(S(=O)(=O)O)cc(Nc2cccc(S(N)(=O)=O)c2)c2c1C(=O)c1ccccc1C2=O [Compound 117079] | 0.4053 | Yes |  | 163% |  |  | 
Nc1nc(N)c(/N=N/c2ccc(C(=O)O)c(O)c2)c(N)n1 [Compound 117285] | 0.2954 | Yes |  | 59.9% |  |  | 
CN(C)S(=O)(=O)c1ccc(Nc2ccc(O)c3c2C(=O)c2c([N+](=O)[O-])ccc(O)c2C3=O)cc1 [Compound 117949] | 0.9351 | Yes |  | 50.3% |  |  | 
N=C1C(O)C2(I)c3ccccc3N3C(=N)C(O)C4c5ccccc5N1C4C32 (stereo not shown) [Compound 118176] | 0.5128 | Yes |  | 62.3% |  |  | 
O=C(O)C1CCCCC1c1c2ccc(=O)c(O)c-2oc2c(O)c(O)ccc12 (stereo not shown) [Compound 119910] | 0.1582 | Yes |  | 119% |  |  | 
O=C(O)/C=C/c1c2ccc(=O)c(O)c-2oc2c(O)c(O)ccc12 [Compound 119911] | 0.07992 | Yes |  | 123% |  |  | 
CC1C2C=CC1C(c1c3ccc(=O)c(O)c-3oc3c(O)c(O)ccc13)C2C(=O)O (stereo not shown) [Compound 119913] | 0.0972 | Yes |  | 131% |  |  | 
O=C(O)CCc1c2ccc(=O)c(O)c-2oc2c(O)c(O)ccc12 [Compound 119915] | 0.5317 | Yes |  | 158% |  |  | 
O=C(O)c1cccc(/N=N/c2c(S(=O)(=O)O)ccc3c2C(=O)c2ccccc2C3=O)c1O [Compound 125908] | 0.2215 | Yes |  | 124% |  |  | 
Nc1ccc(-c2ccc(Nc3cc(S(=O)(=O)O)c(N)c4c3C(=O)c3ccccc3C4=O)cc2)c(S(=O)(=O)O)c1 [Compound 125910] | 0.2439 | Yes |  | 123% |  |  | 
CNc1ccc(Nc2ccc(S(=O)(=O)O)cc2)c2c1C(=O)c1ccccc1C2=O [Compound 128437] | 0.9929 | Yes |  | 166% |  |  | 
O=C(O)c1cnc2c(ccc3ncc(C(=O)O)c(O)c32)c1O [Compound 128884] | 0.205 | Yes |  | 55.3% |  |  | 
O=[N+]([O-])c1cc(Cc2cc([N+](=O)[O-])c3cccnc3c2O)c(O)c2ncccc12 [Compound 130798] | 0.1969 | Yes | 115% |  |  |  | 

Source: US20090118135A1, “METHODS AND COMPOUNDS FOR REGULATING APOPTOSIS” (The Burnham Institute, priority 2007, published 2009)
